Patent US20240216357A1 (SICHUAN HUIYU PHARMACEUTICAL CO., LTD., priority 2021, published 2024)
Counter-ions that a name gives are not always drawn. Like-named read-outs stand apart in the source and are kept apart here.

Experiments:
[1] = target: LSD1 (Homo sapiens (Human), UniProt O60341); test: LSD1 enzyme activity detection (HTRF); type: biochemical; settings: HTRF, H3K4me1 substrate; read-out: Inhibition of enzymatic activity of LSD1 IC50
[2] = tested on: NCI-H1417 cells; test: In vitro cell proliferation detection (CellTiter-Glo, 7 days); type: cell-based; settings: NCI-H1417 cells, 7 days, CellTiter-Glo, read-out: NCI-H1417 proliferation inhibition IC50
[3] = target: CYP3A4 (Homo sapiens (Human), UniProt P08684); settings: microsomes
Sequence of CYP3A4 (P08684 whole entry): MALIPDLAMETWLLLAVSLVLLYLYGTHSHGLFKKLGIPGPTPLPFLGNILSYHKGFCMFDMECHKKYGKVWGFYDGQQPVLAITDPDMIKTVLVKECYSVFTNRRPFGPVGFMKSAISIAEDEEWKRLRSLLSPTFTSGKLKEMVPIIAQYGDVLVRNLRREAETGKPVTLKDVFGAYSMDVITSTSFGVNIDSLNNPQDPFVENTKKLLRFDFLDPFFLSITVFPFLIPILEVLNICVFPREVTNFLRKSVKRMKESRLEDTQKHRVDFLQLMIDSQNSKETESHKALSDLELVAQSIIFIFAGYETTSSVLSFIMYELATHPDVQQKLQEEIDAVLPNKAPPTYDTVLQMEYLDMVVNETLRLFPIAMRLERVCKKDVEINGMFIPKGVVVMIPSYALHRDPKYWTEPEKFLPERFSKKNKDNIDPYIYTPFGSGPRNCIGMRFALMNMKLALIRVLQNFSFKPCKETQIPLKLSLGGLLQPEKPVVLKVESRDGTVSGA

[4] = target: T1, voltage-gated potassium ion channel hERG (Homo sapiens (Human), UniProt Q12809)
T1 sequence (Q12809 whole entry): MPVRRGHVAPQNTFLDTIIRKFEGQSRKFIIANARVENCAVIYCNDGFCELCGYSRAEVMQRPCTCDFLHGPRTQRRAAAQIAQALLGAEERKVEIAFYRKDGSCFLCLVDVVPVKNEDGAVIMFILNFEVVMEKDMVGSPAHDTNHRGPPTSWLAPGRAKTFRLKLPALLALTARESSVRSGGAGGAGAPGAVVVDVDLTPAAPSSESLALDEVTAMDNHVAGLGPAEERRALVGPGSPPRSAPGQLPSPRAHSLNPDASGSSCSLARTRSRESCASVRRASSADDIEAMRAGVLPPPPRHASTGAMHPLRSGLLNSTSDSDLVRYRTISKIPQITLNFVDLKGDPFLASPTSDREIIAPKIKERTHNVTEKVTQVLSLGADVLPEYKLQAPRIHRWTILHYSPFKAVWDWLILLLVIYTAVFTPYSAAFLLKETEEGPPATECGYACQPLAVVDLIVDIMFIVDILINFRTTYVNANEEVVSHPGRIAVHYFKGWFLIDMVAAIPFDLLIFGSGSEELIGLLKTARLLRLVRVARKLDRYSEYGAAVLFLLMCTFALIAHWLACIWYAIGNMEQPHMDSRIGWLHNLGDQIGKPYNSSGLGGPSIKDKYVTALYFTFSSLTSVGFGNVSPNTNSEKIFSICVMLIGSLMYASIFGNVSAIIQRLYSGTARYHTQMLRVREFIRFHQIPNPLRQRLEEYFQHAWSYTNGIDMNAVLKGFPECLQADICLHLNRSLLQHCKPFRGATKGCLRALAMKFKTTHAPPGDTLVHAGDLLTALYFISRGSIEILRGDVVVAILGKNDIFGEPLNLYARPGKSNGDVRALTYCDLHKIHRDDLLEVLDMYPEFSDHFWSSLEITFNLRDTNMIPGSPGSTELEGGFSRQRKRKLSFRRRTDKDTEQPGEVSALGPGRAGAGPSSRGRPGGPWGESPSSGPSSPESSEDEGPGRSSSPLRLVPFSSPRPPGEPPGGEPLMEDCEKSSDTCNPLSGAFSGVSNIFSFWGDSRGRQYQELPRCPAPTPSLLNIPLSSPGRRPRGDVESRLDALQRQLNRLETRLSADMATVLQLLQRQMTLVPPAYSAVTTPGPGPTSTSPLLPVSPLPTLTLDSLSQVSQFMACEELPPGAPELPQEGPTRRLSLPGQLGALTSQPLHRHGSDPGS

[5] = rat, in vivo; for F: male, SD
[6] = in vivo; settings: male, SD, rat
[7] = in vitro; settings: human, Caco-2
[8] = tested on: Caco-2 cells; test: Caco-2 permeability test; settings: for Mean Papp A to B: Caco-2, A to B; for Mean Papp A to B / Mean Papp B to A: 120 min; for Mean Papp B to A: Caco-2, B to A
[9] = target: T1, voltage-gated potassium ion channel hERG; test: hERG inhibition test (manual patch-clamp); settings: read-out: hERG IC50; manual patch-clamp
Throughout, for Cmax: test concentration or dose not given here.

Cc1noc2cc(-c3c(-c4ccc(C#N)c(F)c4)nc(N4C5CCC4CC(N)C5)n4ccnc34)c(F)cc12 (stereo not drawn) [Example 118, 4-(5-(3-amino-8-azabicyclo [3.2.1]octane-8-yl)-8-(5-fluoro-3-methylbenzo[d]isoxazol-6-yl)imidazolo[1,2 c]pyrimidin-7-yl)-2-fluorobenzonitrile]
IC50 [1]: 0.27 ± 0.01 nM
IC50 ([2]; Homo sapiens, 168 h): 0.6 nM
IC50 [3]: 8680 nM
IC50 [4]: 13200 nM
F [5]: 12.1%
Cl [5]: 56.1
AUC(0-inf) [6]: 192 ng·h/mL
Cmax [6]: 26.9 ng/mL
Vd [6]: 20 L/kg
half-life [6]: 4.67 h

COc1ccc(-c2c(-c3ccc(C#N)c(F)c3)nc(N3C4CCC3CC(N)C4)n3ccnc23)cc1F (stereo not drawn) [Example 120, 4-(5-(3-amino-8-azabicyclo[3.2.1]octane-8-yl)-8-(3-fluoro-4-methoxyphenyl)imidazolo[1,2-c]pyrimidin-7-yl)-2-fluorobenzonitrile]
IC50 [1]: 0.77 ± 0.43 nM
IC50 ([2]; Homo sapiens, 168 h): 2.08 nM
IC50 [3]: 8930 nM
IC50 [4]: 7830 nM
F [5]: 14.4%
Cl [5]: 39.9
AUC(0-inf) [6]: 310 ng·h/mL
Cmax [6]: 34.7 ng/mL
Vd [6]: 14.5 L/kg
half-life [6]: 4.82 h
Papp A→B at 120 min [7]: 2.88 ×10⁻⁶ cm/s
Papp B→A at 120 min [7]: 7.37 ×10⁻⁶ cm/s
efflux ratio at 120 min [7]: 2.56

COc1ccc(-c2c(-c3ccc(C#N)c(F)c3)nc(N3C4CCC3CC(N)C4)n3ccnc23)cc1O (stereo not drawn) [Example 155, 4-(5-(3-amino-8-azadicyclo[3.2.1]octane-8-yl)-8-(3-hydroxy-4-methoxyphenyl)imidazolo[1,2-c]pyrimidin-7-yl)-2-fluorobenzonitrile hydrochloride]
IC50 [1]: 0.2 ± 0.1 nM
IC50 ([2]; Homo sapiens, 168 h): 0.352 nM
IC50 [3]: 18000 nM

N#Cc1ccc(-c2nc(N3C4CCC3CC(N)C4)n3ccnc3c2-c2cc3c(cc2F)OCO3)cc1F (stereo not drawn) [Example 175, 4-(5-(3-amino-8-azabicyclo[3.2.1]octane-8-yl)-8-(6-fluorobenzo[d] [1,3]dioxane-5- -yl)imidazolo [1,2-c]pyrimidin-7-yl)-2-fluorobenzonitrile hydrochloride]
IC50 [1]: 3.2 ± 2.1 nM
IC50 ([2]; Homo sapiens, 168 h): 4.13 nM
IC50 [3]: 8080 nM

N#CCn1ncc2cc(F)c(-c3sc(C(=O)N4C5CCC4CC(N)C5)cc3-c3ccc(C#N)c(F)c3)cc21 (stereo not drawn) [Example 215, 4-(5-(3-amino-8-azabicyclo [3.2.1]octan-8-carbonyl)-2-(1-(cyanomethyl)-5-fluoro-1H-indazol-6-yl)thiophen-3-yl)-2-fluoro-benzonitrile]
IC50 [1]: 0.45 ± 0.05 nM
IC50 ([2]; Homo sapiens, 168 h): 4.19 nM
IC50 [4]: 11400 nM

CS(=O)(=O)N1CCN(C(=O)c2cc(CCCN[C@@H]3C[C@H]3c3ccc(F)cc3)nc(-c3ccc(-n4cccn4)cc3)n2)CC1 [Example 257, (2-(4-(1H-pyrazol-1-yl)phenyl)-6-(3-((1R,2S)-2-(4-fluorophenyl)cyclopropyl)amino)pyrimidin-4-yl)(4-(methylsulfonyl)piperazin-1-yl)methanone]
Mean Papp A to B [8]: 1.54 10^−6 cm/s
Mean Papp B to A [8]: 4.55 10^−6 cm/s
IC50 [9]: 2830 nM

CS(=O)(=O)N1CCN(c2cc(CCCN[C@@H]3C[C@H]3c3ccc(F)cc3)nc(-c3ccc(C#N)cc3)n2)CC1 [Example 261, 4-(4-(3-(1R,2S)-2-(4-fluorophenyl)cyclopropyl)amino)-6-(4-(methylsulfonyl)piperazin-1-yl)pyri midin-2-yl)benzonitrile formate]
IC50 [2]: 3.22 nM
Efflux Ratio ([8]; Caco-2): 1.38
Mean Papp A to B [8]: 0.49 10^−6 cm/s
Mean Papp B to A [8]: 0.67 10^−6 cm/s
